The results in this text go back to ChEMBL document CHEMBL2074320, “Polyspecific organic anion transporting polypeptides mediate hepatic uptake of amphipathic type II organic cations” (J Pharmacol Exp Ther, 1999).

Data set [1] addresses T1, Solute carrier organic anion transporter family member 1A2 (Homo sapiens, UniProt P46721).
T1 sequence (P46721 whole entry): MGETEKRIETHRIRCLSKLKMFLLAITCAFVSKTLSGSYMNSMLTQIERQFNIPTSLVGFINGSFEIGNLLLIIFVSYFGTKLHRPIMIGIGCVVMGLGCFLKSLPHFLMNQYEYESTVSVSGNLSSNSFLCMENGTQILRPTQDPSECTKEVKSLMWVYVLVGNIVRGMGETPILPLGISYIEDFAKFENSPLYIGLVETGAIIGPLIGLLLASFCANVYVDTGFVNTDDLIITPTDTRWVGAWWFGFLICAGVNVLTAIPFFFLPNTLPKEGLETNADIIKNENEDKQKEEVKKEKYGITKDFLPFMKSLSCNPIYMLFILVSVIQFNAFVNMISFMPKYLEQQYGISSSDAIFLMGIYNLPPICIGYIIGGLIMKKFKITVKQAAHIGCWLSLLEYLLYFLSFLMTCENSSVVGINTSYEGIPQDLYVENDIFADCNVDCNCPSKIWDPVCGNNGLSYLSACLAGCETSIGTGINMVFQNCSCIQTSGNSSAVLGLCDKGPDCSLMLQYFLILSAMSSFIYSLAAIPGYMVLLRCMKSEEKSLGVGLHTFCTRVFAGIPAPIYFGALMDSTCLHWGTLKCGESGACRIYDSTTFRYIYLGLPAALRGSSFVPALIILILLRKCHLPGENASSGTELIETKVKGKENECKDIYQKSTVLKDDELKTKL
Put plainly: (§1) TP_TRANSPORTER: uptake in Xenopus laevis oocytes. The format is functional, cell-based, Oocyte. The note with it: oocyte.

The target of data set [2] is T2, Solute carrier organic anion transporter family member 1A1 (Rattus norvegicus, UniProt P46720).
T2 sequence (P46720 whole entry): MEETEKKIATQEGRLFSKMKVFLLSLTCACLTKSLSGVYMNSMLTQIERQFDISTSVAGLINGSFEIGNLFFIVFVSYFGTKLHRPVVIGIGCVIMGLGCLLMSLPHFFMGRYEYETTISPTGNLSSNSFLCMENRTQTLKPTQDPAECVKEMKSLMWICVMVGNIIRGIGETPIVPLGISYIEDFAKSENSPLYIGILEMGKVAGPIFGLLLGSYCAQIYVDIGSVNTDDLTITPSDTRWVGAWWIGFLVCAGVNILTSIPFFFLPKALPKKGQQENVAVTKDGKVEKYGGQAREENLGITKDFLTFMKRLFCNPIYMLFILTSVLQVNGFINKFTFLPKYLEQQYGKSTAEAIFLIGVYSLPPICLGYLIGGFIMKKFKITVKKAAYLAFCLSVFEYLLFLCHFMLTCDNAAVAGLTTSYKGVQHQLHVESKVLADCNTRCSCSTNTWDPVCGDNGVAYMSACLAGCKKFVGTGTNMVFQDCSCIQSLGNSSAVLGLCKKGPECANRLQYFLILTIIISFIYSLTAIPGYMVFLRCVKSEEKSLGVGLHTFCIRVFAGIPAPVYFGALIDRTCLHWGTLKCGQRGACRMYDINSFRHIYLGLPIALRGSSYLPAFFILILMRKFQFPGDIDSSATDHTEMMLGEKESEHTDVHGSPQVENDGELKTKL
The description is as §1. The class given is functional, cell-based. Conditions: oocyte.

In data set [3] the target is T3, Solute carrier organic anion transporter family member 1A4 (Rattus norvegicus, UniProt O35913).
T3 sequence (O35913 whole entry): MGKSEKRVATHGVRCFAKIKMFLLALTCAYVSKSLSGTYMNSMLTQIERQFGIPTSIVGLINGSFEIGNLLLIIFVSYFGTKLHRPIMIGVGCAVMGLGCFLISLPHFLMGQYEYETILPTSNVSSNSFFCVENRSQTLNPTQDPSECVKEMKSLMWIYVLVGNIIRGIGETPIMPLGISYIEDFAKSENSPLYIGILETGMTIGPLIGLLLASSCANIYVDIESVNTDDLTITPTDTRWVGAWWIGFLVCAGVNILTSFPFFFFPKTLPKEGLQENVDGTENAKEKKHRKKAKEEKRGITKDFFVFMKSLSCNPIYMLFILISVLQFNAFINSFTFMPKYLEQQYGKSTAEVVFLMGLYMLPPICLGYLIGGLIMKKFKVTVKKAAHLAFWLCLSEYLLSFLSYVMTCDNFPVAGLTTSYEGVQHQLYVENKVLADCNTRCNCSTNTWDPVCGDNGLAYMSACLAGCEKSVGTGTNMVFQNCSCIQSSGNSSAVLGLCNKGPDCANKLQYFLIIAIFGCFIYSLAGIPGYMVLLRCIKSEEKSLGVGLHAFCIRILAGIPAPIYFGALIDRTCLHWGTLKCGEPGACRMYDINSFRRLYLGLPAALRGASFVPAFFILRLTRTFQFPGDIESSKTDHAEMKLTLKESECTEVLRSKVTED
The description is as §1. The format is functional, cell-based. The note with it: oocyte.

Data set [4] deals with T4, Solute carrier organic anion transporter family member 1A2 (OATP1A2) (Homo sapiens, UniProt P46721).
T4 sequence (P46721 whole entry): T1 sequence (P46721 whole entry)
Described as §1. The format is functional, cell-based, Oocyte. The note with it: Xenopus laevis oocytes expressing the transporter.

As usually defined, the Km is the substrate concentration at which the rate is half of its maximum.

Take `CCC1C[N+]2(CCCC3(C)N=N3)C3CC45c6ccccc6N(C)C4C2CC1C3C5O` (configuration not stated): the Activity result in data set [1], in data set [2] and in data set [3] was “substrate [+]” each time.
Turning to `C=C[C@H]1C[N+]2(C)CC[C@H]1C[C@H]2[C@H](O)c1ccnc2ccc(OC)cc12`, the Km in data set [4] stood at 5.1 µM. For the same compound, the Activity result was “substrate [+]” in data set [2] and “is not a substrate [-]” in data set [3].
On to `C=C[C@H]1C[N+]2(C)CC[C@H]1C[C@@H]2[C@@H](O)c1ccnc2ccc(OC)cc12`, for which the Km in data set [4] amounted to 25.6 µM. The Activity result in data set [2] and in data set [3] was “is not a substrate [-]” throughout.
For the compound `C=CC[N+]1([C@H]2C[C@H]3[C@@H]4CC[C@H]5C[C@H](O)[C@@H](N6CCOCC6)C[C@]5(C)[C@H]4CC[C@]3(C)[C@H]2OC(C)=O)CCCC1` [ROCURONIUM], the Activity result in data set [1], in data set [2] and in data set [3] was “substrate [+]” in each case.
